Biological target: T1, MARK4 (Homo sapiens, UniProt Q96L34)
T1 construct: purchased Thermo Fisher Scientific (Life Technologies) SelectScreen
Test: SelectScreen Z'LYTE
Format: biochemical
In short: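 Percent values come from Thermo SelectScreen profiling of NU5455, combining activity and binding assays. CSF1R was run in Z'LYTE format at Km app ATP, and CAMK1 in Adapta format with ATP listed at 10.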

T1 sequence (Q96L34 whole entry): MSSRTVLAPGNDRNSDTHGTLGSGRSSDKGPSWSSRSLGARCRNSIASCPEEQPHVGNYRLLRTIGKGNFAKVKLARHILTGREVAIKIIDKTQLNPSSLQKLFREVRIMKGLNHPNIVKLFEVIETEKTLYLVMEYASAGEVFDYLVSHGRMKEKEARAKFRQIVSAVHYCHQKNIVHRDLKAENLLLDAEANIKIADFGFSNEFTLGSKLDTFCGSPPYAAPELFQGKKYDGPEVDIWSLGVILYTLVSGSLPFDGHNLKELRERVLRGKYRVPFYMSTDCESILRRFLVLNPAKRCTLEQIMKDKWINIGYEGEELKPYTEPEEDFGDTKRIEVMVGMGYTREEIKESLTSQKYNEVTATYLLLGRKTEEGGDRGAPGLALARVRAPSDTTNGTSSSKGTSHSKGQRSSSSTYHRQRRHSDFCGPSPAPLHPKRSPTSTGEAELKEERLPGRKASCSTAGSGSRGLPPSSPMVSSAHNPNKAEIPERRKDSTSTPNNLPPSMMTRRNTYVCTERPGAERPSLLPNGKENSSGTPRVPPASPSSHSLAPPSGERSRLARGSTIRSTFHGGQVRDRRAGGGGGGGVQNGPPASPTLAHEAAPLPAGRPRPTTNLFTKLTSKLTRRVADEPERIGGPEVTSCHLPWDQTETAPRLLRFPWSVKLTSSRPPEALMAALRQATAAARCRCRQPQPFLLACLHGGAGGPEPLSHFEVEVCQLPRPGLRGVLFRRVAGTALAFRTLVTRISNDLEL

SMILES: CN(C(=O)CN1CCOCC1)c1ccc2sc3c(-c4cccc5c(=O)cc(N6CC7CCC(C6)O7)oc45)cccc3c2c1 [NU5455]
- inhibition at 1 µM: -2%

Reference: publication PMC6934184, “Selective DNA-PKcs inhibition extends the therapeutic index of localized radiotherapy and chemotherapy” (The Journal of Clinical Investigation, 2019)
